Measurements published in patent US20090156471A1, “Use of anti-amyloid agents for treating and typing pathogen infections” (RAMOT AT TEL AVIV UNIVERSITY LTD., priority 2005, published 2009).
“Also recorded” adds a separate entry of the source.

Assays:
[1] = Circular dichroism (CD) spectra and copper binding
Protocol: FIGS. 2a-b are graphs showing copper binding to QHGGGN (SEQ ID NO: 5) peptide repeat. […] The titration of metal ions to the oligopeptide was performed using small aliquots from stock aqueous solutions of 25 mM CuCl2.2H2O. CD spectrum (250-800 nm) of QHGGGN (0.5 mM, pH 7.5) was measured with the addition of Cu^2+ in increments of 0.0125 mM (as a minimum) of CuCl2 (0.5 μl) from 0 up to 0.65 mM. Typically, 50 mM HEPES pH 7.5 buffer was used for CD studies. Spectra were obtained using an AVIV spectrapolarimeter and a 5 mm (FIG. 2a) and 10 mm (FIG. 2b) path length cuvettes.
Circular dichroism (CD) spectra and Copper binding—Circular Dichroism (CD) spectra, 250-800 nm, of the curli QHGGGN hexapeptide repeat in the absence and presence were preformed. […] The titration of metal ions to the oligopeptide was performed using small aliquots from stock aqueous solutions of 25 mM CuCl2-2H2O. CD spectrum (250-800 nm) of QHGGGN (0.5 mM, pH 7.5) was measured with the addition of Cu^2+ in increments of 0.0125 mM (as a minimum) of CuCl2 (0.5 μl) from 0 up to 0.65 mM. 50 mM HEPES pH 7.5 buffer was used for CD studies.

[2] = TEM analysis of peptide self-assembly into fibrillar structures; type: physicochemical; settings: for self-assembly / fibril formation observed by TEM: peptide in water 10 to 50 mg/ml, room temperature, 3-6 days (micrographs: 50 mg/ml, 1 week)
Protocol: TEM analysis—In all examined cases, peptides were dissolved in water to a concentration of 10 to 50 mg/ml and incubated at room-temperature (RT). Fresh stocks were prepared for each and every experiment. […] Following 1 minute, excess fluid was removed, and the grid was then negatively stained with 10 μl of 2% uranyl-acetate in water. Following 2 minutes, excess fluid was removed from the grid. Samples were viewed in JEOL 1200 EX transmission electron microscope. In the experiments shown, 50 mg/ml peptides were used and micrographs were taken following 1 week. Bar represents 100 nm.

[3] = test system: curli-expressing E. coli XL1-Blue(pMRInv) binding to bovine fibronectin; assay: Fibronectin binding (adhesion of bacteria to fibronectin coated wells); type: cell-based, Escherichia coli; settings: 0.3 mM peptide, A405, FIG. 3b
Protocol: The adhesion of bacteria to fibronectin coated wells was determined by measuring absorbance at 405 nm. For (A) and (B), each column is the average of three experiments.
Fibronectin binding—Binding was quantified using the protocol described by Gophna et al (32). Briefly, wells of microtiter plates were coated with 100 μl of 5 μg/ml solution of bovine fibronectin (Sigma). The two strains of bacteria were grown to mid-exponential phase (A600, 0.5-0.6) with the various peptides in LB, harvested and suspended in saline. Wells were blocked with 200 μl milk (3%) for 2 hours at RT. Two hundreds micro-liter saline containing 5×10^8 cells/ml bacteria (A600, 0.9) were added to the wells with 0.3 mM of the suitable peptide and were incubated at RT for 3 h. Wells were washed twice with 200 μl PBS-T (0.05% Tween) and once with 200 μl PBS. The optical density of adherent bacteria was determined by the use of a microplate reader (ELISA) (A405), subtracting the optical density of an empty coated well.

[4] = test system: E. coli XL1-Blue(pMRInv) internalization into HEK293 cells; assay: Internalization assay (antibiotic protection assay) in HEK293 cells; settings: 0.4 mM peptide, HEK293, 3 h at 37° C., gentamicin protection
Protocol: Internalization assay—Epithelial cells were grown overnight in 24-well plates to 80% confluence (˜10^5 cells per well). Bacteria were inoculated in LB broth and grown at 37° C. for 16 h, diluted 100-fold, and grown to mid-exponential phase (A600, 0.4) in the presence or absence of 0.4 mM peptide inhibitor. Bacteria were then diluted to A600, 0.1 in LB and 20 μl were added to each well with epithelial monolayer for 3 h incubation at 37° C. […] Cells were washed once with PBS, pH 7.3, and PBS containing 100 μg/ml gentamicin was added. After 1.5 h incubation, the cells were washed twice in PBS, and lysed by 5 min incubation with ice-cold 0.5% triton X-100. Appropriate bacterial dilutions were plated to determine the number of viable internalized bacteria. E. coli XL1-Blue was maintained on Luria-Bertani (LB) agar and E. coli XL1-Blue(pMRInv) was maintained on LB agar containing 30 μg/ml kanamycin. […]
For that purpose, an antibiotic protection assay was effected using HEK293 cell-line. […] Following exposure to the antibiotic gentamicin, eukaryotic cells were analyzed for bacteria internalization rate by the determination of the colony forming units (cfu) of the surviving bacteria (FIG. 4a).

[5] = test system: curli-expressing E. coli K-12 XL1-Blue(pMRInv); assay: Quantitative Congo red (CR) binding of curli expressing bacteria; settings: 0.3 mM peptide, FIG. 3a
Protocol: Binding units represent the decrease in absorbance (A487) of the CR solution after incubation with bacteria.
Congo red binding—Bacterial inoculums were grown in 6 ml LB medium for 5-7 hours at 37° C. in the presence or absence of 0.3 mM peptide inhibitor, until the cultures reached A600 of approximately 1.2. Each culture was then pelleted (1 min/13200×g) and resuspended in 6 ml saline (0.8% NaCl). Three double dilutions were performed for each culture and bacterial concentrations were determined at A600. Each dilution was divided into 3 microtubes (1 ml for each) and pelleted by centrifugation for 2 min/13200×g. A 0.004% solution of CR (in saline) was prepared and optical density at 487 nm was measured against a saline background. One thousand, 500 and 200 μl of CR solution were then added to each dilution triplets, the bacteria were well resuspended in the dye and left for 10 min incubation at RT. Next, a second centrifugation (2 min/13200×g) was performed and the supernatants containing the remaining dye were recovered. The optical density at 487 nm of each supernatant was determined and compared to the initial absorbance.
Inhibition was examined by directly applying the putative peptide inhibitor at time zero to a growing culture in liquid medium at 37° C. Cells analyzed for CR binding when reached optical density (A600) of approximately 1.2 absorbance units (AU).

[6] = target: the molecule itself; assay: TEM of peptide self-assembly

For QHGGGN [curli hexapeptide repeat], the “Cu^2+ binding stoichiometry” value ([1]; CD signal at 590 nm, peptide 0.5 mM, pH 7.5, 50 mM HEPES, CuCl2 0 up to 0.65 mM) was “equimolar binding stoichiometry; also recorded: single Cu^2+ ion binding for each peptide molecule”, the “affinity of copper binding for a single repeat” value ([1]; binding curve sigmoid at concentrations in the hundreds of μM range) was “not high” and the “fibrillization in the presence of copper” value ([2]; electron microscopy, 48 hours with equimolar CuCl2 in 50 mM HEPES, pH 7.5, room-temperature) was “did not induce fibrillization”. For the same molecule, the “self-assembly / fibril formation observed by TEM” value [2] was “assembled into fibrillar structures” and the “self-assembly / fibril formation observed by TEM” value ([2]; listed as NH2-QHGGGN-COOH) was “well-ordered fibrillar structures”.

In the case of NHQGGG, the “self-assembly / fibril formation observed by TEM” value [2] is reported as “small amount but highly ordered assemblies”.

With HGQGNG the “aggregation potential (amount of aggregates) of scrambled QHGGGN sequences” value ([2]; TEM, FIG. 1c) was “highly aggregative and much more abundant” and the “self-assembly / fibril formation observed by TEM” value [2] was “amorphous aggregates”.

In the case of GQNHGG, the “self-assembly / fibril formation observed by TEM” value [2] is reported as “fibril-like structured”.

With QFGGGN the “bacterial adhesion to fibronectin coated wells” value [3] was “no significant effect”, the “amount of internalized bacteria (cfu) in eukaryotic cells” value [4] was “did not interfere with bacterial invasion process” and the “fibril formation in a mixture of QFGGGN and QAGGGN peptides” value ([2]; mixture with QAGGGN, 3-6 days incubation, TEM) was “not inhibited”. For the same molecule, the “self-assembly / fibril formation observed by TEM” value [2] was “assembled into fibrillar structures”, the “self-assembly / fibril formation observed by TEM” value ([2]; listed as NH2-QFGGGN-COOH) was “well-ordered fibrillar structures” and the “binding of CR in comparison to XL1-Blue(pMRInv) grown in absence of peptide” value [5] was “no significant difference”.

For QAGGGN, the “bacterial adhesion to fibronectin coated wells” value [3] was “no significant effect”, the “structures observed by TEM after prolonged incubation” value ([2]; following 30 days of incubation) was “only minor amounts of amorphous aggregates” and the “self-assembly / fibril formation observed by TEM” value [2] was “ability was lost; also recorded: no ordered structures could be detected”. For the same molecule, the “binding of CR in comparison to XL1-Blue(pMRInv) grown in absence of peptide” value [5] was “no significant difference”.

B1: QHGGGN peptide (NH2-QHGGGN-COOH) (peptide)
peptide: H-QHGGGN-OH
notes: also called curli QHGGGN hexapeptide repeat
B1: binds [6].

B2: QFGGGN peptide (NH2-QFGGGN-COOH) (peptide)
peptide: H-QFGGGN-OH
notes: also called curlin repeat; oligopeptide repeat QFGGGN
B2: binds [6].
